Test results as given in publication PMC7108782, “Direct interaction of metastasis-inducing S100P protein with tubulin causes enhanced cell migration without changes in cell adhesion” (Biochemical Journal, 2020).
“Also recorded” adds a separate entry of the source. No end group written: not given here.

Assays:
COS-7 S10 cells = assay: Boyden chamber cell migration, S100P-inducible COS-7; format: cell-based, monkey; conditions: for effect on S100P-enhanced migration: COS-7 S10, 20 nM taxol or 5 µM colchicine, 24 h
Source text: (§1) Cell migration rate (%) = M/G × 100.

COS-7 cells = assay: Boyden chamber cell migration, COS-7 parental; format: cell-based, monkey
Source text: as §1

Rama 37-T25 cells = assay: S100P-enhanced cell migration, Rama 37-T25; format: cell-based, rat; conditions: Rama 37-T25; 20 nM taxol or 5 µM colchicine, 24 h
Source text: as §1

HeLa-A3 cells = assay: S100P-enhanced cell migration, HeLa-A3; format: cell-based, human; conditions: HeLa-A3; 20 nM taxol or 5 µM colchicine, 24 h
Source text: as §1

cell migration = conditions: almost all cell types tested, ref [17]; cited from earlier work
Source text: It was reported that complete disruption of MTs in CHO and HeLa cells retained normal migration rates, but the resultant movement became more random and reduced overall travel distance.

HeLa cells = assay: Boyden chamber cell migration with MT regulators, HeLa; conditions: 20 nM taxol, 24 h
MCF-7 cells = assay: Boyden chamber cell migration with MT regulators, MCF-7; conditions: 20 nM taxol, 24 h, MCF-7
Rama 37 cells = assay: Boyden chamber cell migration with MT regulators, Rama 37; conditions: 20 nM taxol, 24 h
S100P = target: T1, S100P (Homo sapiens, UniProt P25815); assay: Isothermal titration calorimetry (ITC) of tubulin peptides with S100P; format: binding; conditions: ITC, 25°C, 20 mM MES pH 6.1, 50 mM NaCl, 1.0 mM TCEP, 5 mM CaCl2; single site fit; peptide in cell, S100P titrated
T1 construct: made in house
T1 sequence (P25815 1-95): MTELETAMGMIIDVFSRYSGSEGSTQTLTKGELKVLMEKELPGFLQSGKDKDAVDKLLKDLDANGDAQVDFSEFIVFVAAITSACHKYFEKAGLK
Protocol: Measurements were conducted using an ITC-200 instrument (Microcal) as previously described. ITC titrations were performed in 20 mM MES pH 6.1, 50 mM NaCl, 1.0 mM TCEP and 5 mM CaCl2 (for Ca^2+-form of S100P) at 25°C. Due to low solubility, peptide solutions at concentrations of 10–400 µM were placed in the cell and titrated with S100P at concentrations of 0.5–3 mM, depending on the peptide concentration. Data were integrated and fitted to a single site binding equation using Origin 7 software which was included with the ITC module (Malvern Microcal, Malvern, U.K.).

[1] = format: physicochemical; conditions: pH 6.1
Protocol: ^1H, ^15N HSQC spectra were measured at 40°C in 20 mM 2-morpholinoethanesulfonic acid sodium salt (MES), 50 mM NaCl, 0.5 mM CaCl2, 2 mM Tris-carboxyethyl-phosphine (TCEP), pH 6.1 buffer as described previously. Samples were prepared from 1.6 mM solution of ^15N-labelled S100P and 2–5 mM peptide solutions to obtain a 1 : 1 mixture of 0.1 mM of S100P and 0.1 mM of each peptide. Initially, peptide solutions were prepared by weight to produce 5 mM peptide concentrations. […] In these cases, buffer was added to reduce the peptide concentration to 2 mM. […] These peptides were added to the protein as cloudy suspensions to produce 0.1 mM solutions; some precipitations were still detected. To estimate the peptide concentrations, equivalent peptide solutions without the protein were prepared. All solutions were centrifuged before the NMR measurements. NMR spectra were collected on Bruker Avance III 800 MHz spectrometer equipped with CryoProbe. Data were processed and analysed in TopSpin 3.5 (Bruker, Karlsruhe, Germany).
Measurements were conducted using an ITC-200 instrument (Microcal) as previously described. ITC titrations were performed in 20 mM MES pH 6.1, 50 mM NaCl, 1.0 mM TCEP and 5 mM CaCl2 (for Ca^2+-form of S100P) at 25°C. […]

Dicytostelial cells = conditions: ref [40]; cited from earlier work
Source text: It was reported that complete disruption of MTs in CHO and HeLa cells retained normal migration rates, but the resultant movement became more random and reduced overall travel distance. […] Well-established MTs may increase the rigidity of cells as well as their polarity and play a constraining role to limit a cell's ability of moving and changing direction. […] However, unlike the scratch wound- ...

[2] = target: T2, α,β-tubulin immobilised on a chip (human | , UniProt Q71U36 1-451; P07437 1-444); assay: cell-based or functional assay
[3] = target: T2, α,β-tubulin immobilised on a chip; assay: SPR; α,β-tubulin immobilised on CM5 chip; S100P in solution; single-cycle analysis; Kd near equilibrium; conditions: both partners purified
[4] = target: T2, α,β-tubulin immobilised on a chip; assay: SPR; α,β-tubulin immobilised on CM5 chip; S100P in solution; Kd from the ratio of forward and backward rate constants; conditions: both partners purified
[5] = target: DIC peptide, the 26mer starting with DIC from β-tubulin; assay: ITC; peptide (10-400 µM) in the cell titrated with S100P (0.5-3 mM); 25°C; 20 mM MES pH 6.1, 50 mM NaCl, 1.0 mM TCEP, 5 mM CaCl2; single site fit
[6] = target: VNA peptide from the C terminus of α-tubulin (human); assay: as above
[7] = target: T2, α,β-tubulin immobilised on a chip; assay: SPR; α,β-tubulin immobilised on CM5 chip; S100P in solution; high salt buffer (0.5 M NaCl) with 200 µM CaCl2; multiple cycles; Kd at or near equilibrium; conditions: both partners purified
[8] = target: T2, α,β-tubulin immobilised on a chip; assay: SPR; α,β-tubulin immobilised on CM5 chip (BS3), Biacore X100; S100P 20-2000 nM in solution; 0.15 M NaCl, 200 µM CaCl2; multiple-cycle; Kd from extent of binding near equilibrium; conditions: both partners purified

T2 sequence (P68363 whole entry, chain 1 of 2): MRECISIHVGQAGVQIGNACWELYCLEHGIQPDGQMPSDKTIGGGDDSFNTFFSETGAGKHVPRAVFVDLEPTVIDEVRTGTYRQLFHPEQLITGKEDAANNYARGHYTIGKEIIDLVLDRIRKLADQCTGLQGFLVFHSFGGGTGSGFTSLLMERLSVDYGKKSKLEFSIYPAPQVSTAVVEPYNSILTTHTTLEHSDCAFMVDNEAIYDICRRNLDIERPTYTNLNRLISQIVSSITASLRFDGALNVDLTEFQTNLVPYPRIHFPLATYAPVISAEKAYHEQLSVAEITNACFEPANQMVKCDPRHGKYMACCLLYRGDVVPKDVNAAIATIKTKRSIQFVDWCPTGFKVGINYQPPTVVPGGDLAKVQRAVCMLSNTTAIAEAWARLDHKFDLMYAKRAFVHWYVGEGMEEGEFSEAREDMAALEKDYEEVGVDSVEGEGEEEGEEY
T2 sequence (P07437 whole entry, chain 2 of 2): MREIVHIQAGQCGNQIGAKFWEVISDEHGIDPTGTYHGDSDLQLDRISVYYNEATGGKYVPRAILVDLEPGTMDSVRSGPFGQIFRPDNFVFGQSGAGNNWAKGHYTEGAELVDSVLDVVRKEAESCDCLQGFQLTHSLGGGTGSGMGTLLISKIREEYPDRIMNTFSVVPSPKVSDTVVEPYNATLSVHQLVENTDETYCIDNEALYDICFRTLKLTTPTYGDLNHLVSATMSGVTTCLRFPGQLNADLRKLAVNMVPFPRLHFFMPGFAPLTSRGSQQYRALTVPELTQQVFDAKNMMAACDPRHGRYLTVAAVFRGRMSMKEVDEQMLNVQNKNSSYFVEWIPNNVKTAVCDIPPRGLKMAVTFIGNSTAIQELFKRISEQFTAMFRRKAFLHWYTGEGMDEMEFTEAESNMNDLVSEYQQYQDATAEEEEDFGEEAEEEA

For CC(=O)O[C@H]1C(=O)[C@@]2(C)[C@H]([C@H](OC(=O)c3ccccc3)[C@]3(O)C[C@H](OC(=O)[C@H](O)[C@@H](NC(=O)c4ccccc4)c4ccccc4)C(C)=C1C3(C)C)[C@]1(OC(C)=O)CO[C@@H]1C[C@@H]2O [taxol], the “effect on S100P-enhanced migration” value (COS-7 S10 cells) was “suppressed”, the “effect on S100P-enhanced migration” value (COS-7 S10 cells; listed as Taxol) was “completely prevents the S100P-induced stimulation of migration” and the “effect on S100P's stimulation of migration” value (COS-7 S10 cells; taxol to stabilise MTs or colchicine to dissociate MTs (abstract)) was “abolished”. The “reduction of migration by taxol” value (COS-7 cells; 20 nM taxol, 24 h, COS-7) was 70–75%, the “dose dependence of taxol effect on migration” value (COS-7 cells; Supplementary Figure S4, COS-7, 24 h) was “significantly reduced cell migration in a dose-dependent manner” and the “effect on S100P-enhanced migration” value (Rama 37-T25 cells) was “suppressed”. The “effect on S100P-enhanced migration” value (HeLa-A3 cells) was “suppressed”, the “effect on cell migration” value (cell migration) was “significantly reduced cell migration in almost all cell types tested” and the “reduction of migration by taxol” value (HeLa cells) was 70–75%. The “reduction of migration by taxol” value (MCF-7 cells) was 70–75% and the “reduction of migration by taxol” value (Rama 37 cells) was 70–75%.

In the case of DICFRTLKLTTPTYGDLNHLVSATMS [DIC], the Kd (S100P) is reported as 9 µM and the “solubility / aggregation (in words)” value [1] is reported as “sufficiently soluble to measure their binding parameters by ITC”.

In the case of COC(=O)Nc1nc2ccc(C(=O)c3cccs3)cc2[nH]1 [nocodazole], the “effect on cell migration” value (Dicytostelial cells) is given as “could significantly increase cell migration and shape changes, but reduced chemotaxis; also recorded: dramatically enhance the non-directional (random) movements”.

B1: Recombinant S100P (natural protein)
chain: T1 sequence (P25815 1-95)
modifications: 15N-labelled in the NMR experiments
notes: S100P; Used in SPR, gel overlay, NMR and ITC; also called 15N-labelled S100P; source: recombinant, produced as described previously [10]
For B1, the “S100P-induced fold increase in migration of COS-7 S10 cells (3.4 or 3.5 fold with DMSO or Tag), with 20 µM T-DIC” value [2] was 1.4 fold, the “S100P-induced fold increase in migration of COS-7 S10 cells (3.4 or 3.5 fold with DMSO or Tag), with 20 µM T-DLV” value [2] was 1.5 fold and the Kd [3] was 0.22 µM. For the same molecule, the Kd [4] was 0.1 to 0.2 µM, the Kd [5] was 9 µM and the Kd [6] was 62 µM. For the same molecule, the stoichiometry N (peptide:protein) [6] was 2, the Kd [7] was 6.1 µM and the Kd [8] was 0.31 µM.
